The text below walks through data of patent US20250361233A1, “Compounds For Activating Serotonin Receptor” (PSYLO PTY LTD, priority 2023, published 2025).

SMILES strings stand for the structures.

The subject of one series is C57BL/6J mice. The series is described as follows: Biotelemetry and head-twitch response (HTR) experiments. In kind it is in vivo, mice (C57BL/6J males). To be noted: male C57BL/6 mice, SC, several doses (0.03 to 30 mg/kg). The source says:
Mice (C57BL/6J males) were purchased from the Jackson Laboratory (Bar Harbor, ME, USA) at 5-6 weeks of age and allowed at least 1-2 weeks to acclimate to the NIDA, Intramural Research Program (IRP), animal research facility in Baltimore, MD, USA. The animal facility is fully accredited by the Association for the Assessment and Accreditation of Laboratory Animal Care, and all procedures were approved by the NIDA IRP Animal Care and Use Committee. Mice were initially group housed 3-5 per cage during acclimation and housed in a 12 h light-dark cycle throughout the study, with lights on at 0700 h. Food and water were available ad libitum except during testing. Cohorts of 20-24 mice were used for each test drug. The mice were subjected to experimental testing once every 1-2 weeks for 2-3 months to complete dose-effect curves and antagonist experiments. A minimum of 7 days between treatments was utilized to avoid any tolerance to effects of repeated drug administration. All drug doses represent the weight of the salt dissolved in 0.9% saline vehicle. Mice were tested first in dose-response studies to assess the effects of each compound at doses from 0.03 to 30 mg/kg s.c. and were subsequently tested in antagonist reversal studies utilizing pretreatment with M100907 and WAY100635. All experiments were conducted from 0900 to 1700 local time during the light phase, as sensitivity of rodents to other tryptamine psychedelics is diurnal, with maximal HTR observed in the middle of the light phase. […]
Subcutaneous Temperature Transponder Implants. […] Temperature was determined noninvasively using a handheld receiver that is sensitive to signals emitted from the implanted transponders.
Prior to each experiment, mouse body weight and temperature were recorded. […] In dose-response studies, after a brief 5 min acclimation, mouse body temperature was recorded for baseline measurement, mice received s.c. injection of test substance or vehicle, and animals were returned to the testing arena for 30 min. During the session, locomotor activity was monitored via photobeam tracking of movements in the horizontal plane to yield distance traveled in centimeter. HTR was monitored by the analysis of GoPro Hero Black 7 video recordings (120 frames per see and 960p resolution) using a commercially available software package from Clever Sys Inc. (Reston, VA, USA).82 Post-treatment body temperature values were also recorded, and temperature data are represented as change from pretreatment baseline.
In antagonist reversal experiments, mice received a s.c. injection of either receptor antagonists or vehicle and were returned to the testing chamber for 30 min. During this period, locomotor activity was monitored to examine the potential effects of antagonist treatment on general behavior or movement. […]

The test system of the next series is Male ICR mice. The series is described as follows: Acute restraint stress - tail suspension test (TST). To be noted: ICR mice after 5 h acute restraint stress, IP; P-3 3, 10 mg/kg; P-8 3, 10, 30 mg/kg; vs vehicle. The format is in vivo. The procedure: Male ICR mice (23±3 g) were purchased from BioLASCO (Taipei, Taiwan) at 4-5 weeks of age and allowed 5-7 days to acclimate to the animal research facility at Pharmacology Discovery Services (Taipei, Taiwan). Mice were housed in groups of 10 in a large cage (47×25×15 cm) on a 12-hour light cycle (lights on: 0700) and provided ad libitum food and water except during acute restraint stress and tail-suspension testing. Temperature was maintained at 20-24° C., and all rooms (colony and testing rooms) had similar lighting intensity. All aspects of this work including housing, experimentation, and animal disposal were performed in accordance with the “Guide for the Care and Use of Laboratory Animals: Eighth Edition” (The National Academies Press, Washington, DC, 2011) in a facility accredited by the Association for Assessment and Accreditation of Laboratory Animal Care. […]
Tail Suspension Test (TST) Procedure: Mice were individually suspended on the edge of a shelf, 58 cm above a tabletop, using adhesive tape placed approximately 1 cm from the tip of the tail, for a total duration of 7 minutes. Using a stopwatch, the experimenters blinded to treatment groups recorded the duration of immobility (defined as hanging passively and motionless) during the 5 minutes spanning from 2-7 minutes. The data from 0-2 minutes was not recorded. […]

As to `COc1ccnc2[nH]cc(CCN(C)C)c12` [Compound P-4, 2-(4-methoxy-1H-pyrrolo[2,3-b]pyridin-3-yl)-N,N-dimethylethan-1-amine], in the series with C57BL/6J mice, the “Head-twitch response (HTR)” value is on record as “not promoting increased head-twitch response” and the “Tolerability (temperature, locomotor activity, HTR; FIGS. 2-5)” value was “well-tolerated”.
For the compound `COc1cnc2[nH]cc(CCN(C)C)c2c1` [Compound P-3, 2-(5-methoxy-1H-pyrrolo[2,3-b]pyridin-3-yl)-N,N-dimethylethan-1-amine], in the series on C57BL/6J mice, the “Head-twitch response (HTR)” value is recorded as “not promoting increased head-twitch response” and the “Tolerability (temperature, locomotor activity, HTR; FIGS. 2-5)” value is listed as “well-tolerated”. The “Immobility time in tail suspension test (FIG. 6)” value in the series with Male ICR mice is on record as “decrease the immobility time of mice”.
